The record followed here is ChEMBL document CHEMBL5244204, “Drug discovery approaches targeting 5-lipoxygenase-activating protein (FLAP) for inhibition of cellular leukotriene biosynthesis” (Eur J Med Chem, 2018).

SMILES strings stand for the structures.

Assay [1] can be described thus: Inhibition of Leukotriene biosynthesis in human PMNL cells preincubated for 2 mins followed by calcium ionophore A23187 addition and measured after 5 mins by radioimmunoassay. The assay is classed as functional, cell-based.
The nature of assay [2]: Inhibition of Leukotriene biosynthesis in calcium ionophore A-23187 stimulated human PMNL cells assessed as inhibition of LTB4 formation by enzyme immunoassay. The assay is classed as functional, cell-based.
For assay [3], the system named is Rattus norvegicus. Nature of the assay: In vivo inhibition of Leukotriene biosynthesis in pleural inflammation rat model assessed as reduction in LTB4 level at po dosed for 1 hr followed by calcium ionophore A-23187 administration and measured after 30 mins by enzyme immunoassay. The assay is classed as functional. Particulars: time 1.5 hrs.
For assay [4], the system named is Rattus norvegicus. Description: Anti-inflammatory activity against anaphylaxis in peritoneal cavity of rat model assessed as reduction in LTB4 level at po dosed by ELISA. The assay is classed as functional.
Assay [5] can be described thus: Inhibition of Leukotriene biosynthesis in calcium ionophore A23187 stimulated human PMNL cells assessed as inhibition of LTB4 formation by cellular assay. The class given is functional, cell-based.
The target of assay [6] is T1, Arachidonate 5-lipoxygenase-activating protein (Homo sapiens, UniProt P20292).
T1 sequence (P20292 whole entry): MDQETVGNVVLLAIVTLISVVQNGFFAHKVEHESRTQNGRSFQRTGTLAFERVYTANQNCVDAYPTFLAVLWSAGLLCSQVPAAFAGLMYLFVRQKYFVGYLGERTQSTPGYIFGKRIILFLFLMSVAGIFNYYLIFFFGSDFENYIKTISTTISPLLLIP
Description: Inhibition of FLAP in human whole blood assessed as reduction of LTB4 formation preincubated with enzyme for 15 mins followed by calcimycin addition and measured after 30 mins by HTRF assay. The class given is tissue-based.

In assay [7] the target is T1, Arachidonate 5-lipoxygenase-activating protein. Nature of the assay: Inhibition of FLAP in human monocyte assessed as reduction in all-trans isomers of LTB4 and 5-HETE formation preincubated with enzyme for 15 mins followed by Ca2+ ionophore-A23187 and measured after 10 mins by HPLC analysis. The assay is classed as cell-based.
The target is the same in assay [8]. Nature of the assay: Inhibition of FLAP in human PMNL cells assessed as reduction in all-trans isomers of LTB4 and 5-HETE formation preincubated with enzyme for 15 mins followed by Ca2+ ionophore-A23187 and measured after 10 mins by HPLC analysis. The assay is classed as cell-based.
For assay [9] the target is unchanged. Nature of the assay: Inhibition of FLAP in human whole blood assessed as reduction in LTB4 level preincubated for 15 mins followed by calcium ionophore A23187 addition and measured after 30 min. The class given is tissue-based.
Another assay is filed under the species Homo sapiens. Nature of the assay: Inhibition of Leukotriene biosynthesis in human whole blood assessed as inhibition of LTB4 formation. The assay is classed as functional.
The target in assay [10] is T2, Polyunsaturated fatty acid 5-lipoxygenase (Homo sapiens, UniProt P09917).
T2 sequence (P09917 whole entry): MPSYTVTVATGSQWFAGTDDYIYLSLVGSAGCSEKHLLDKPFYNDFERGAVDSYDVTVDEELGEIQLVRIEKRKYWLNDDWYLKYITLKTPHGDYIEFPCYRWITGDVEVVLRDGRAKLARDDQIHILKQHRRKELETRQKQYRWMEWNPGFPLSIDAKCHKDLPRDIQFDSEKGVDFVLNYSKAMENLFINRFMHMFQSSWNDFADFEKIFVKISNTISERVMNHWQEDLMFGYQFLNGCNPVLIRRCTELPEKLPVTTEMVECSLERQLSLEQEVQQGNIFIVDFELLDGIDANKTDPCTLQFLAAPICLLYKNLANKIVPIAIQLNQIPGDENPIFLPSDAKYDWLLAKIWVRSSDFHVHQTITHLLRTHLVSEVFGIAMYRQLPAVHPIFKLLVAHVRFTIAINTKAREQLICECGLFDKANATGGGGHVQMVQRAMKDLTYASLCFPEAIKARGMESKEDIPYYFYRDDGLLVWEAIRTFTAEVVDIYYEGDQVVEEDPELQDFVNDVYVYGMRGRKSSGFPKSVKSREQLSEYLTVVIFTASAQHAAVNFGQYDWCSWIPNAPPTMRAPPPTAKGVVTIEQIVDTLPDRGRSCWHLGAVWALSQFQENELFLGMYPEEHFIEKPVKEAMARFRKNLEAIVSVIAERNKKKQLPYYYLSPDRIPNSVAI
Description: Inhibition of 5-LOX in human PMNL cells assessed as inhibition of LTB4 formation preincubated for 5 mins followed by calcium ionophore A23187 addition and measured after 6 min by HPLC analysis. The class given is cell-based.

Assay [11] has as its system Rattus norvegicus. Description: In vivo inhibition of Leukotriene biosynthesis in anaphylaxis rat model assessed as reduction in LTB4 level at po dosed. The class given is functional.
The target in assay [12] is T2, Polyunsaturated fatty acid 5-lipoxygenase. Nature of the assay: Inhibition of 5-LOX in human whole blood assessed as inhibition of LTB4 formation preincubated for 10 mins followed by calcium ionophore A23187 addition and measured after 30 min by RIA/RP--HPLC analysis. The class given is tissue-based.
The target of assay [13] is T3, Polyunsaturated fatty acid 5-lipoxygenase (Rattus norvegicus, UniProt P12527).
T3 sequence (P12527 whole entry): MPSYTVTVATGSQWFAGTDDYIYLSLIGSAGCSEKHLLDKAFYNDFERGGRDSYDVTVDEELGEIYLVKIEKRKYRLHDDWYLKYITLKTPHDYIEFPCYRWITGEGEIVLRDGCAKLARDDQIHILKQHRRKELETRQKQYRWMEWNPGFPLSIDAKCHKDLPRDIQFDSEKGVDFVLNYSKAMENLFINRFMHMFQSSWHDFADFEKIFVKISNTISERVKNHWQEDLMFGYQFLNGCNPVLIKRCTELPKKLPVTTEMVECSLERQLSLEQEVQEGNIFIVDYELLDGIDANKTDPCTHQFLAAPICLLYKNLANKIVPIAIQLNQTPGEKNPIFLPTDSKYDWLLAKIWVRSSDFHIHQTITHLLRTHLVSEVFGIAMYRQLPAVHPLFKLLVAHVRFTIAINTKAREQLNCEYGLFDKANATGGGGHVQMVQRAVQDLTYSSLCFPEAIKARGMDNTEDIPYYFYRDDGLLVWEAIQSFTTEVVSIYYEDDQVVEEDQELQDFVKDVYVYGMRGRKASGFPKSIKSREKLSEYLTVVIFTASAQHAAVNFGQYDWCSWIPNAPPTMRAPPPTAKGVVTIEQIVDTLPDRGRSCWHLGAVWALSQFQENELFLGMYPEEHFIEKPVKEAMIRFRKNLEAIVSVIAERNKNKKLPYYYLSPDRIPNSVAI
Nature of the assay: Inhibition of 5-LOX in […] rat PMNL cells assessed as reduction in 5-LO product level incubated for 3 mins by scintillation counting method. The assay is classed as cell-based.

Assay [14] concerns the target T1, Arachidonate 5-lipoxygenase-activating protein. Nature of the assay: Displacement of [125I]-L-691831 from recombinant human FLAP expressed in Sf9 insect cells incubated for 2 hr by scintillation proximity assay. (In general: In a radioligand displacement assay an active substance lowers the binding of a labelled ligand.)
The target in assay [15] is T2, Polyunsaturated fatty acid 5-lipoxygenase. Description: Inhibition of recombinant human 5-LO expressed in Escherichia coli JM109 using arachidonic acid as substrate incubated for 10 mins by HPLC analysis.
The target of assay [16] is T1, Arachidonate 5-lipoxygenase-activating protein. Description: Inhibition of FLAP in human PMNL cells assessed as inhibition of 5-LO product LT formation preincubated for 15 mins followed by calcium ionophore A23187 addition and measured after 10 min by HPLC analysis. The class given is cell-based.
For assay [17] the target is unchanged. Description: Inhibition of FLAP in human whole blood assessed as reduction in all-trans isomers of LTB4 and 5-HETE formation preincubated with enzyme for 15 mins followed by fMLP addition and measured after 15 mins by HPLC analysis. The class given is tissue-based.
The target is the same in assay [18]. Description: Inhibition of FLAP in human monocyte assessed as reduction in all-trans isomers of LTB4 and 5-HETE formation preincubated with enzyme for 15 mins followed by A23187 addition and measured after 10 mins by ELISA assay. The assay is classed as cell-based. Background: An ELISA detects its analyte on a solid surface through an enzyme-linked reagent.

Assay [19] shares this target. Nature of the assay: Inhibition of FLAP in human neutrophil assessed as reduction in all-trans isomers of LTB4 and 5-HETE formation using arachidonic acid as substrate preincubated with enzyme for 15 mins followed by substrate addition and A23187 measured after 10 mins by ELISA assay. The assay is classed as cell-based.
The target in another assay is T4, Prostaglandin E synthase (Homo sapiens, UniProt O14684).
T4 sequence (O14684 whole entry): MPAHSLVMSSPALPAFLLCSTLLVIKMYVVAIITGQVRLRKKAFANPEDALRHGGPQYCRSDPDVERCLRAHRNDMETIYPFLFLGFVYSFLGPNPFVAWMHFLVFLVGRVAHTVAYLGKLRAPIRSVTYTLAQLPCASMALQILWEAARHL
Description: Inhibition of mPGES-1 activity in IL-1beta human A549 microsome using PGH2 as substrate preincubated for 15 mins followed by substrate addition for 1 min by RP-HPLC analysis. The class given is microsomes.

The IC50 is the concentration at which inhibition is half-maximal. On to `c1ccc(COCC(OCc2ccccc2)c2ccc(OCc3ccc4ccccc4n3)cc2)cc1` (stereo not drawn), for which the IC50 in assay [1] is 30 nM.

As a reminder, the ED50 is the dose that gives a 50% effect, or the effect in half of the subjects. `CC(CCC(=O)O)(c1ccc(OCc2ccc3ccccc3n2)cc1)c1ccc(OCc2ccc3ccccc3n2)cc1`: the IC50 in assay [2] turned out to be 23 nM. Further, the ED50 in the assay on Rattus norvegicus [3] amounted to 1.5 mg/kg.

On to `CC(C)(/C=N/OCC(=O)O)Cc1c(SC(C)(C)C)c2cc(OCc3ccc4ccccc4n3)ccc2n1Cc1ccc(Cl)cc1`, for which, in the assay with Rattus norvegicus [4], the ED50 was 0.24 mg/kg. In assay [5], the IC50 turned out to be 12 nM.

As to `CNC(=O)c1ccc(F)cc1-c1nc2cc(-c3cnc(N)nc3)ccc2n1C(C)(C)C`, the IC50 in assay [6] stood at 130 nM.

`O=C(O)c1noc(-c2ccc(OCc3ccc4ccccc4n3)cc2)c1-c1ccc(Cl)cc1`: the IC50 in assay [7] and in [8] was 7 nM throughout.

As for `Nc1cnc(-c2ccc(C3CCC3)c(Oc3ncccn3)c2F)cn1`, the half-maximal inhibitory concentration (IC50) in assay [9] stood at 66 nM.

Take `O=C(O)[C@@H](c1ccc(OCc2ccc3ccccc3n2)cc1)C1CCCC1` [VELIFLAPON]: the IC50 amounted to 6000 nM in the assay listed under Homo sapiens, 220 nM in [10] and 11600 nM in assay [12]. Moreover, in the assay on Rattus norvegicus [11], the ED50 amounted to 4 mg/kg.

In the case of `CC(C)(C)c1ccc(-c2cnc(N)cn2)c(F)c1`, in [9], the IC50 is 600 nM.

Regarding `O=C(O)CSC(CCCc1ccc(Cl)cc1)c1ccc(OCc2ccc3ccccc3n2)cc1` (stereo not drawn), the IC50 in assay [13] is 20 nM.

As for `CNC(=O)c1ccc(C#N)cc1-c1nc2cc(-c3cnc(N)nc3)ccc2n1C(C)(C)C`, in assay [6], the IC50 was determined as 94 nM.

As for `C/C(=N\O[C@H](c1ccc(OCc2ccc3ccccc3n2)cc1)C1CCCCC1)C(=O)[O-].[Na+]`, the IC50 in the assay filed under Homo sapiens turned out to be 870 nM. In the assay with Rattus norvegicus [11], the 50% effective dose (ED50) came out at 0.4 mg/kg.

Turning to `CC(C)(C)n1c(-c2ccccc2C(=O)Nc2ccccn2)nc2cc(-c3cnc(N)nc3)ccc21`, the IC50 in [6] was 2700 nM.

Turning to `Nc1cnc(-c2ccc(-c3ccccc3S(N)(=O)=O)cc2F)cn1`, in assay [9], the half-inhibitory concentration (IC50) stood at 390 nM.

As to `CC(C)(CO/N=C/C(=O)O)Cc1c(SC(C)(C)C)c2cc(OCc3ccc4ccccc4n3)ccc2n1Cc1ccc(Cl)cc1`, the ED50 with Rattus norvegicus [4] turned out to be 0.9 mg/kg. In assay [5], the IC50 worked out at 21 nM.

Take `Cc1ccn(-c2ccc(Cl)cc2-c2nc3cc(-c4cnc(N)nc4)ccc3n2C(C)(C)C)n1`: in [14], the IC50 stood at 0.7 nM.

With `O=C(O)CSC(CCCc1ccccc1)c1ccc(OCc2ccc3ccccc3n2)cc1` (stereo not drawn) [AZD-4769], the IC50 in assay [13] came to 70 nM.

Take `CC1(C)Cc2c(-c3ccccc3)c(-c3ccc(Cl)cc3)c(CC(=O)O)n2C1` [LICOFELONE]: the IC50 in assay [15] is > 10000 nM; in [16], 1700 nM.

Consider `O=C(O)[C@@H](c1ccc(OCc2ccc3ccccc3n2)cc1)C1CCCCCC1`, for which the IC50 turned out to be 42 nM in assay [10] and 1100 nM in [12].

Regarding `CC(C)Cc1ccc(C(C)c2nc3ccccc3n2Cc2ccccc2Cl)cc1` (stereo not drawn), the IC50 in [17] was determined as 4800 nM; in assay [18], 40 nM; in [19], 150 nM; on Prostaglandin E synthase, 200 nM.

For `O=C(O)CSC(CCCc1ccccc1)(Cc1ccccc1)c1ccc(OCc2ccc3ccccc3n2)cc1` (stereo not drawn), the concentration for half-maximal inhibition (IC50) in assay [1] amounted to 4 nM.
